This passage reports T/C results from PubChem BioAssay AID248 (DTP/NCI, 2004).

The experiment relates to L1210 leukemia ip in BDF1 mice, survival T/C. Nature of the experiment: NCI In Vivo Anticancer Drug Screen. Data for tumor model L1210 Leukemia (intraperitoneal) in B6D2F1 (BDF1) mice. The following applies: endpoint: mean survival time, higher = longer survival. Summed up: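 Antitumor effect is assessed in tumor-bearing animals. Survival in the compound arm is compared with a vehicle-dosed control arm and expressed as their quotient.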

Setting [1] is: dose: 200.0 mg/kg/injection, schedule: Q01DX009 (ip), vehicle: saline.
The mark [2] stands for this setting: dose: 100.0 mg/kg/injection, schedule: Q04DX003 (ip), vehicle: saline with Tween-80.
The mark [3] stands for this setting: dose: 200.0 mg/kg/injection, schedule: Q04DX003 (ip), vehicle: saline with Tween-80.
The mark [4] stands for this setting: dose: 400.0 mg/kg/injection, schedule: Q04DX003 (ip), vehicle: saline with Tween-80.
[5] abbreviates: dose: 50.0 mg/kg/injection, schedule: Q01DX009 (ip), vehicle: Klucel (hydroxypropylcellulose) (HPC).
Where [6] appears, read: dose: 100.0 mg/kg/injection, schedule: Q01DX009 (ip), vehicle: Klucel (hydroxypropylcellulose) (HPC).
Where [7] appears, read: dose: 100.0 mg/kg/injection, schedule: Q04DX003 (ip), vehicle: Klucel (hydroxypropylcellulose) (HPC).
The mark [8] stands for this setting: dose: 200.0 mg/kg/injection, schedule: Q01DX009 (ip), vehicle: Klucel (hydroxypropylcellulose) (HPC).
The mark [9] stands for this setting: dose: 200.0 mg/kg/injection, schedule: Q04DX003 (ip), vehicle: Klucel (hydroxypropylcellulose) (HPC).
[10] abbreviates: dose: 400.0 mg/kg/injection, schedule: Q04DX003 (ip), vehicle: Klucel (hydroxypropylcellulose) (HPC).
Where [11] appears, read: dose: 200.0 mg/kg/injection, schedule: Q04DX003 (ip), vehicle: saline.

Several values for one entry are separate records, joined by “and”; a condition that tells them apart may be missing. Identical values can stand only once. Toxic doses and inconclusive results are not listed.

Take `CCCSc1nc(N)nc2nc[nH]c12`: the T/C by setting is: (dose: 1.25 mg/kg/injection, schedule: Q01DX Z (ip), vehicle: carboxymethylcellulose (CMC)) 91 % of control; (dose: 2.5 mg/kg/injection, schedule: Q01DX Z (ip), vehicle: carboxymethylcellulose (CMC)) 114 % of control; (dose: 2.9 mg/kg/injection, schedule: Q01DX Z (ip), vehicle: carboxymethylcellulose (CMC)) 114 % of control; (dose: 4.4 mg/kg/injection, schedule: Q01DX Z (ip), vehicle: carboxymethylcellulose (CMC)) 116 % of control; (dose: 5.0 mg/kg/injection, schedule: Q01DX Z (ip), vehicle: carboxymethylcellulose (CMC)) 118 % of control; (dose: 8.3 mg/kg/injection, schedule: Q01DX009 (ip), vehicle: saline) 102 % of control. The T/C by setting is: (dose: 12.0 mg/kg/injection, schedule: Q01DX009 (ip), vehicle: saline) 105 % of control; (dose: 20.0 mg/kg/injection, schedule: Q01DX Z (ip), vehicle: carboxymethylcellulose (CMC)) 151 % of control and 168 % of control; (dose: 29.0 mg/kg/injection, schedule: Q01DX009 (ip), vehicle: Klucel (hydroxypropylcellulose) (HPC)) 121 % of control; (dose: 40.0 mg/kg/injection, schedule: Q01DX Z (ip), vehicle: carboxymethylcellulose (CMC)) 150 % of control and 153 % of control and 156 % of control; (dose: 62.0 mg/kg/injection, schedule: Q01DX001 (ip), vehicle: other) 108 % of control; (dose: 62.0 mg/kg/injection, schedule: Q## X001 (ip), vehicle: other) 119 % of control. In addition, the T/C was 105 % of control (dose: 90.0 mg/kg/injection, schedule: Q01DX Z (ip), vehicle: carboxymethylcellulose (CMC)); 118 % of control and 88 % of control (dose: 125.0 mg/kg/injection, schedule: Q01DX001 (ip), vehicle: other); 123 % of control (dose: 125.0 mg/kg/injection, schedule: Q## X001 (ip), vehicle: other); 92 % of control (dose: 135.0 mg/kg/injection, schedule: Q01DX Z (ip), vehicle: carboxymethylcellulose (CMC)); 151 % of control (dose: 160.0 mg/kg/injection, schedule: Q01DX Z (ip), vehicle: carboxymethylcellulose (CMC)); 90 % of control under setting [1]. Further, the T/C reads like this: (dose: 250.0 mg/kg/injection, schedule: Q01DX001 (ip), vehicle: other) 120 % of control and 124 % of control; (dose: 300.0 mg/kg/injection, schedule: Q01DX001 (ip), vehicle: other) 115 % of control and 118 % of control; (dose: 300.0 mg/kg/injection, schedule: Q## X001 (ip), vehicle: other) 117 % of control; (dose: 400.0 mg/kg/injection, schedule: Q01DX001 (ip), vehicle: other) 101 % of control; (dose: 400.0 mg/kg/injection, schedule: Q## X001 (ip), vehicle: other) 101 % of control; (dose: 500.0 mg/kg/injection, schedule: Q## X001 (ip), vehicle: other) 203 % of control.

Consider `COc1cc(Oc2c(OC)cc(N)cc2OC)cc(OC)c1OC`, for which the T/C under setting [2] was 97 % of control, the T/C under setting [3] is 95 % of control and the T/C under setting [4] was 95 % of control.

With `Cc1ccc(NC(=O)OCCOc2ccc([N+](=O)[O-])cc2)c([N+](=O)[O-])c1`, the T/C is 102 % of control under setting [5]; 91 % of control under setting [6]; 97 % of control under setting [7]; 91 % of control under setting [8]; 102 % of control under setting [9]; 95 % of control under setting [10].

`CC1CN(CC2CCCCCCCCCCC2=O)CC(C)O1` (stereo not drawn): the T/C is 116 % of control (dose: 100.0 mg/kg/injection, schedule: Q04DX002 (ip), vehicle: Klucel (hydroxypropylcellulose) (HPC)) and 90 % of control (dose: 200.0 mg/kg/injection, schedule: Q04DX002 (ip), vehicle: Klucel (hydroxypropylcellulose) (HPC)).

Turning to `O=[N+]([O-])c1ccc2c(N=Nc3c(O)ccc4ccccc34)c(O)cc(S(=O)(=O)O)c2c1`, the T/C was 98 % of control (dose: 50.0 mg/kg/injection, schedule: Q04DX003 (ip), vehicle: saline); 92 % of control (dose: 100.0 mg/kg/injection, schedule: Q01DX001 (ip), vehicle: saline); 92 % of control (dose: 200.0 mg/kg/injection, schedule: Q01DX001 (ip), vehicle: saline); 92 % of control under setting [11].

Regarding `CC(=O)Nc1cc2c(cc1[N+](=O)[O-])-c1ccccc1/C2=N\O`, the T/C (dose: 100.0 mg/kg/injection, schedule: Q01DX001 (ip), vehicle: carboxymethylcellulose (CMC)) is 106 % of control; the T/C (dose: 200.0 mg/kg/injection, schedule: Q01DX001 (ip), vehicle: carboxymethylcellulose (CMC)) is 94 % of control; the T/C (dose: 400.0 mg/kg/injection, schedule: Q01DX001 (ip), vehicle: carboxymethylcellulose (CMC)) is 111 % of control.

As for `CCCCCCCCCCCC(CCCC)CCCC`, the T/C is 93 % of control (dose: 100.0 mg/kg/injection, schedule: Q01DX001 (ip), vehicle: saline with Tween-80); 104 % of control (dose: 200.0 mg/kg/injection, schedule: Q01DX001 (ip), vehicle: saline with Tween-80); 101 % of control (dose: 400.0 mg/kg/injection, schedule: Q01DX001 (ip), vehicle: saline with Tween-80).

Turning to `C1OC1CN1CCC(C2CCN(CC3CO3)CC2)CC1` (stereo not drawn), the T/C (dose: 0.61 mg/kg/injection, schedule: Q01DX009 (ip), vehicle: saline) was 114 % of control; the T/C (dose: 2.1 mg/kg/injection, schedule: Q01DX009 (ip), vehicle: saline) is 156 % of control; the T/C (dose: 2.9 mg/kg/injection, schedule: Q01DX001 (ip), vehicle: saline) was 121 % of control; the T/C (dose: 3.5 mg/kg/injection, schedule: Q01DX009 (ip), vehicle: saline) is 120 % of control; the T/C (dose: 4.3 mg/kg/injection, schedule: Q01DX001 (ip), vehicle: saline) is 115 % of control; the T/C (dose: 4.4 mg/kg/injection, schedule: Q01DX001 (ip), vehicle: saline) is 159 % of control. The T/C by setting is: (dose: 6.6 mg/kg/injection, schedule: Q01DX001 (ip), vehicle: saline) 122 % of control; (dose: 15.0 mg/kg/injection, schedule: Q01DX001 (ip), vehicle: saline) 160 % of control; (dose: 15.0 mg/kg/injection, schedule: Q01DX009 (ip), vehicle: saline) 150 % of control and 152 % of control; (dose: 50.0 mg/kg/injection, schedule: Q01DX001 (ip), vehicle: saline) 164 % of control; (dose: 60.0 mg/kg/injection, schedule: Q01DX001 (ip), vehicle: saline) 156 % of control; (dose: 60.0 mg/kg/injection, schedule: Q01DX009 (ip), vehicle: saline) 91 % of control.

Turning to `Cc1csc(N)c1C(N)=O`, the T/C by setting is: (dose: 50.0 mg/kg/injection, schedule: Q01DX009 (ip), vehicle: saline with Tween-80) 97 % of control; (dose: 50.0 mg/kg/injection, schedule: Q04DX003 (ip), vehicle: saline with Tween-80) 97 % of control; (dose: 100.0 mg/kg/injection, schedule: Q01DX009 (ip), vehicle: saline with Tween-80) 103 % of control; (dose: 100.0 mg/kg/injection, schedule: Q01DX009 (ip), vehicle: saline) 112 % of control; under setting [2], 92 % of control; (dose: 100.0 mg/kg/injection, schedule: Q04DX003 (ip), vehicle: saline) 117 % of control. Further, the T/C was 102 % of control (dose: 200.0 mg/kg/injection, schedule: Q01DX009 (ip), vehicle: saline with Tween-80); 100 % of control under setting [1]; 97 % of control under setting [3]; 116 % of control under setting [11]; 103 % of control (dose: 400.0 mg/kg/injection, schedule: Q01DX009 (ip), vehicle: saline with Tween-80); 109 % of control (dose: 400.0 mg/kg/injection, schedule: Q01DX009 (ip), vehicle: saline). Besides, the T/C is 102 % of control under setting [4] and 115 % of control (dose: 400.0 mg/kg/injection, schedule: Q04DX003 (ip), vehicle: saline).

`CN(C)c1ccc(Cc2ccc(N(C)C)cc2[N+](=O)[O-])c([N+](=O)[O-])c1`: the T/C by setting is: under setting [5], 100 % of control; under setting [6], 98 % of control and 92 % of control; under setting [7], 101 % of control and 102 % of control; under setting [8], 97 % of control and 101 % of control; under setting [9], 102 % of control and 104 % of control; (dose: 400.0 mg/kg/injection, schedule: Q01DX009 (ip), vehicle: Klucel (hydroxypropylcellulose) (HPC)) 101 % of control and 92 % of control. For the same compound, under setting [10], the T/C is 98 % of control and 105 % of control.
